Data as given in patent US8592161B2, “Mutational profiles in HIV-1 protease correlated with phenotypic drug resistance” (Janssen R&D Ireland, priority 2002, dated 2013).
Where two headings read alike, the source gives them in different places.

What was measured:
Type in all cases: cell-based
[1] = test system: HIV-1/LAI; assay: In vitro antiviral activity in acutely infected MT4 cells, wild type; conditions: read-out: median EC50
Experimental: (§1) Determination of the antiviral activity of a compound was done as described in Pauwels R. et al. (J Virol Methods 1988; 20(4):309-21). Various concentrations of the test compounds were brought into each well of a flat-bottom microtiter plate. Subsequently, HIV and MT4 cells were added to a final concentration of 200-250 50% cell culture infectious doses (CCID50)/well and 30,000 cells/well, respectively. After 5 days of incubation (37° C., 5% CO2), the cytopathic effect of the replicating virus was determined by the tetrazolium colorimetric MTT method. The dose protecting 50% of the cells from virus cytopathic effect was defined as the EC50, while the dose achieving 90% protection was defined as the EC90.
(§2) MT4-LTR-EGFP cells were infected at a multiplicity of infection (MOI) of 0.01 to 0.001 CCID50/cell in the presence of inhibitor. The starting concentration of the inhibitor was two to tee times the EC50, a suboptimal concentration. The cultures were sub-cultivated and scored microscopically on virus-induced fluorescence and cytopathicity every 3-4 days. The cultures were sub-cultivated in the presence of the same compound concentration until signs of virus replication were observed. The escaping virus was further cultivated in the presence of the same inhibitor concentration in order to enrich the population in resistant variants. If full virus breakthrough was observed the supernatant was collected and stored (new virus strain). Afterwards, the same virus was challenged with a higher compound concentration in order to select variants able to grow in the presence of as high as possible inhibitor concentrations. From the new viruses, a virus stock was grown in the absence of inhibitor.
(§3) In vitro drug selection experiments starting from wild-type HIV-1 under pressure of compound 1, compound 2, and Nelfinavir (NFV) have been performed. Tables 1, 2, 3, 4, and 5 show the genotypic and phenotypic characterization of the selected strains.

[2] = test system: HIV-1/LAI strain selected with Comp 1 (30 nM, 70 days), protease K70E; assay: In vitro antiviral activity in acutely infected MT4 cells, selected strain; conditions: for EC50: Human immunodeficiency virus 1, Table 2, strain K70E (Comp 1 30 nM, 70 days), read-out: median EC50; for median FC (fold change in EC50 as compared to wild type): Table 2, strain K70E (Comp 1 30 nM, 70 days)
Experimental: as §1, §2, §3

[3] = test system: HIV-1/LAI strain selected with NFV (9000 nM, 11l days), protease L10F D30N R41R/K K45I/K M46I V77I I84V/I I85V/I N88D; assay: as above; conditions: for EC50: Human immunodeficiency virus 1, Table 5, strain L10F D30N R41R/K K45I/K M46I V77I I84V/I I85V/I N88D (NFV 9000 nM, 11l days), read-out: median EC50; for median FC (fold change in EC50 as compared to wild type): Table 5, strain L10F D30N R41R/K K45I/K M46I V77I I84V/I I85V/I N88D (NFV 9000 nM, 11l days)
Experimental: as §1, §2, §3

[4] = test system: HIV-1 strain selected with Comp 1 (40 nM, 175 days), protease R41G V82I; assay: as above; conditions: for EC50: Human immunodeficiency virus 1, Table 4, strain R41G V82I (Comp 1 40 nM, 175 days), read-out: median EC50; for median FC (fold change in EC50 as compared to wild type): Table 4, strain R41G V82I (Comp 1 40 nM, 175 days)
Experimental: as §1, §2, §3

[5] = test system: HIV-1 strain selected with Comp 1 (20 nM, 94 days), protease R41G/R V82V/I; assay: as above; conditions: for EC50: Human immunodeficiency virus 1, Table 4, strain R41G/R V82V/I (Comp 1 20 nM, 94 days), read-out: median EC50; for median FC (fold change in EC50 as compared to wild type): Table 4, strain R41G/R V82V/I (Comp 1 20 nM, 94 days)
Experimental: as §1, §2, §3

[6] = test system: HIV-1 strain selected with Comp 1 (40 nM, 161 days), protease R41G V82I; assay: as above; conditions: for EC50: Human immunodeficiency virus 1, Table 4, strain R41G V82I (Comp 1 40 nM, 161 days), read-out: median EC50; for median FC (fold change in EC50 as compared to wild type): Table 4, strain R41G V82I (Comp 1 40 nM, 161 days)
Experimental: as §1, §2, §3

[7] = test system: HIV-1/LAI strain selected with Compound 1 (100 nM, 188 days), protease R41T K70E; assay: as above; conditions: for EC50: Human immunodeficiency virus 1, Table 1, strain R41T K70E (Compound 1 100 nM, 188 days), read-out: median EC50; for median FC (fold change in EC50 as compared to wild type): Table 1, strain R41T K70E (Compound 1 100 nM, 188 days)
Experimental: as §1, §2, §3

[8] = test system: HIV-1/LAI strain selected with Comp 1 (100 nM, 195 days), protease S37N R41S K70E; assay: as above; conditions: for EC50: Human immunodeficiency virus 1, Table 2, strain S37N R41S K70E (Comp 1 100 nM, 195 days), read-out: median EC50; for median FC (fold change in EC50 as compared to wild type): Table 2, strain S37N R41S K70E (Comp 1 100 nM, 195 days)
Experimental: as §1, §2, §3

[9] = test system: HIV-1/LAI strain selected with Comp 1 (100 nM, 139 days), protease S37S/N R41R/K K70E; assay: as above; conditions: for EC50: Human immunodeficiency virus 1, Table 2, strain S37S/N R41R/K K70E (Comp 1 100 nM, 139 days), read-out: median EC50; for median FC (fold change in EC50 as compared to wild type): Table 2, strain S37S/N R41R/K K70E (Comp 1 100 nM, 139 days)
Experimental: as §1, §2, §3

[10] = test system: HIV-1 starting strain of Table 4 (no compound, no mutations); assay: In vitro antiviral activity in acutely infected MT4 cells, starting strain; conditions: for EC50: Human immunodeficiency virus 1, starting strain HIV-1, no compound, read-out: median EC50; for median FC (fold change in EC50 as compared to wild type): starting strain HIV-1, no compound
Experimental: as §1, §2, §3

[11] = test system: HIV-1/LAI strain selected with Compound 1 (100 nM, 97 days), protease R41T K70E; assay: In vitro antiviral activity in acutely infected MT4 cells, selected strain; conditions: for EC50: Human immunodeficiency virus 1, Table 1, strain R41T K70E (Compound 1 100 nM, 97 days), read-out: median EC50; for median FC (fold change in EC50 as compared to wild type): Table 1, strain R41T K70E (Compound 1 100 nM, 97 days)
Experimental: as §1
as §2, with “The cultures were sub-cultivated in the presence of the same compound concentration until signs of virus replication were observed.” left out, “Afterwards, the same virus was challenged with a higher compound concentration in order to select variants able to grow in the presence of as high as possible inhibitor concentrations.” left out

[12] = test system: HIV-1/LAI strain selected with Compound 2 (100 nM), protease R41I; assay: as above; conditions: Human immunodeficiency virus 1, Table 3, R41I strain selected with Compound 2 100 nM (head lists 116, 200, 264 days; assignment unclear), read-out: median EC50
Experimental: as §1
as §2, with “The cultures were sub-cultivated in the presence of the same compound concentration until signs of virus replication were observed.” left out, “Afterwards, the same virus was challenged with a higher compound concentration in order to select variants able to grow in the presence of as high as possible inhibitor concentrations.” left out

[13] = Human immunodeficiency virus 1, MT4, Table 1, wild-type HIV/LAI
[14] = Human immunodeficiency virus 1, MT4, Table 2, wild-type HIV-1/LAI
[15] = Human immunodeficiency virus 1, MT4, Table 3, wild-type HIV-1/LAI
[16] = Human immunodeficiency virus 1, MT4, Table 4, wild-type HIV-1/LAI
[17] = Human immunodeficiency virus 1, MT4, Table 5, wild-type HIV-1/LAI

| SMILES | EC50 [1, 13] | EC50 [1, 14] | EC50 [1, 15] | EC50 [1, 16] | EC50 [1, 17] | EC50 [2] | median FC (fold change in EC50 as compared to wild type) [2] | EC50 [3] | median FC (fold change in EC50 as compared to wild type) [3] | EC50 [4] | median FC (fold change in EC50 as compared to wild type) [4] | EC50 [5] | median FC (fold change in EC50 as compared to wild type) [5] | EC50 [6] | median FC (fold change in EC50 as compared to wild type) [6] | EC50 [7] | median FC (fold change in EC50 as compared to wild type) [7] | EC50 [8] | median FC (fold change in EC50 as compared to wild type) [8] | EC50 [9] | also measured |
| --- | --- | --- | --- | --- | --- | --- | --- | --- | --- | --- | --- | --- | --- | --- | --- | --- | --- | --- | --- | --- | --- |
| CC(C)CN(C[C@@H](O)[C@H](Cc1ccccc1)NC(=O)O[C@H]1CCOC1)S(=O)(=O)c1ccc(N)cc1 [Amprenavir] | 0.036 µM | 0.02 µM | 0.02 µM | 0.02 µM | 0.02 µM | 0.056 µM | 3 | 0.095 µM | 5 | 0.0094 µM | 0 | 0.0073 µM | 0 | 0.0066 µM | 0 | 0.039 µM | 1 | 0.014 µM | 1 | 0.024 µM | median FC (fold change in EC50 as compared to wild type) [9]: 1; EC50 [10]: 0.026 µM; median FC (fold change in EC50 as compared to wild type) [10]: 1; EC50 [11]: 0.029 µM; median FC (fold change in EC50 as compared to wild type) [11]: 1; EC50 [12]: 0.0084 µM |
| CC(C)(C)NC(=O)[C@@H]1CN(Cc2cccnc2)CCN1C[C@@H](O)C[C@@H](Cc1ccccc1)C(=O)N[C@H]1c2ccccc2C[C@H]1O [Indinavir] | 0.028 µM | 0.012 µM | 0.012 µM | 0.012 µM | 0.012 µM | 0.018 µM | 2 | 0.1 µM | 8 | 0.0039 µM | 0 | 0.0031 µM | 0 | 0.0021 µM | 0 | 0.14 µM | 5 | 0.0091 µM | 1 | 0.0063 µM | median FC (fold change in EC50 as compared to wild type) [9]: 1; EC50 [10]: 0.0024 µM; median FC (fold change in EC50 as compared to wild type) [10]: 0; EC50 [11]: 0.098 µM; median FC (fold change in EC50 as compared to wild type) [11]: 4; EC50 [12]: 0.047 µM |
| Cc1c(O)cccc1C(=O)N[C@@H](CSc1ccccc1)[C@H](O)CN1C[C@H]2CCCC[C@H]2C[C@H]1C(=O)NC(C)(C)C [Nelfinavir] | 0.03 µM | 0.038 µM | 0.038 µM | 0.038 µM | 0.038 µM | 0.039 µM | 1 | 7.2 µM | 200 | 0.016 µM | 0 | 0.0057 µM | 0 | 0.011 µM | 0 | 0.037 µM | 1 | 0.0095 µM | 0.3 | 0.0097 µM | median FC (fold change in EC50 as compared to wild type) [9]: 0.3; EC50 [10]: 0.031 µM; median FC (fold change in EC50 as compared to wild type) [10]: 1; EC50 [11]: 0.018 µM; median FC (fold change in EC50 as compared to wild type) [11]: 1; EC50 [12]: 0.014 µM |
| CC(C)(C)NC(=O)[C@@H]1C[C@@H]2CCCC[C@@H]2CN1C[C@@H](O)[C@H](Cc1ccccc1)NC(=O)[C@H](CC(N)=O)NC(=O)c1ccc2ccccc2n1 [Saquinavir] | 0.0078 µM | 0.0056 µM | 0.0056 µM | 0.0056 µM | 0.0056 µM | 0.006 µM | 1 | 0.015 µM | 3 | 0.0008 µM | 0 | 0.0009 µM | 0 | 0.001 µM | 0 | 0.15 µM | 20 | 0.0009 µM | 0.2 | 0.0007 µM | median FC (fold change in EC50 as compared to wild type) [9]: 0.1; EC50 [10]: 0.0089 µM; median FC (fold change in EC50 as compared to wild type) [10]: 2; EC50 [11]: 0.035 µM; median FC (fold change in EC50 as compared to wild type) [11]: 4; EC50 [12]: 0.045 µM |
